# Molecular target: T1, Mcl-1/Bim interaction, recombinant human Mcl-1 (171-327) (Homo sapiens, UniProt Q07820)
# T1 construct: made in house
# Assay: Cell free Mcl-1: Bim Affinity Assay (Mcl-1 HTRF)
# Type: binding
# Conditions: TR-FRET, 0.1 nM Mcl-1 (171-327), 0.05 nM biotin-Bim (51-76)
# How it was run: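 TR-FRET competition assay with biotinylated human Bim peptide (residues 51-76); reaction plates incubated overnight before reading. IC50 values came from duplicate data fitted to a four-parameter sigmoidal competition curve.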
# T1 sequence (Q07820 171-327): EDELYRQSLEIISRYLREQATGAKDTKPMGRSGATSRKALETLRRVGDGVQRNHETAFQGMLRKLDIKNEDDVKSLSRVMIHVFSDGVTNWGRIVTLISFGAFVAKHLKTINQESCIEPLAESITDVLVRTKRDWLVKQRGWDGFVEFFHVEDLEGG
row,Structure (SMILES),IC50 [nM]
1,"C[C@@H]1CC/C=C/[C@H](O)[C@]2(C)CC[C@H]2CN2C[C@@]3(CCCc4cc(Cl)ccc43)COc3ccc(cc32)C(=O)NS1(=O)=O (single isomer, unassigned) [Example 118]",34.9
2,"O=C1NS(=O)(=O)[C@H]2COC[C@H]2C/C=C/[C@H](O)[C@@H]2CC[C@H]2CN2C[C@@]3(CCCc4cc(Cl)ccc43)COc3ccc1cc32 (single isomer, unassigned) [Example 1029]",4.42
3,"O=C1NS(=O)(=O)CCC[C@H](O)[C@@H]2CC[C@H]2CN2C[C@@]3(CCCc4cc(Cl)ccc43)COc3ccc1cc32 [Example 342, (1S,3′R,6′R,7′S)-6-chloro-7′-hydroxy-3,4-dihydro-2H,13′H-spiro[naphthalene-1,20′-[18]oxa[11]thia[1,12]diazatetracyclo[12.7.2.0^3,6.0^17,22]tricosa[14,16,22]trien]-13′-one 11′,11′-dioxide]",5
4,"O=C1NS(=O)(=O)[C@H]2C[C@@H](/C=C/[C@H](O)[C@@H]3CC[C@H]3CN3C[C@@]4(CCCc5cc(Cl)ccc54)COc4ccc1cc43)C2 [Example 100, (1S,3′R,6′R,7′S,8′E,10′S,12′R)-6-chloro-7′-hydroxy-3,4-dihydro-2H,15′H-spiro[naphthalene-1,22′-[20]oxa[13]thia[1,14]diazapentacyclo[14.7.2.1^10,12.0^3,6.0^19,24]hexacosa[8,16,18,24]tetraen]-15′-one 13′,13′-dioxide]",2.45
5,"O=C1NS(=O)(=O)[C@H]2C[C@@H](O)C[C@@H]2C/C=C/[C@H](O)[C@@H]2CC[C@H]2CN2C[C@@]3(CCCc4cc(Cl)ccc43)COc3ccc1cc32 (single isomer, unassigned) [Example 336]",1.51

# Same assay, conditions: cell free Mcl-1:Bim TR-FRET, recombinant human Mcl-1 (171-327)
row,Structure (SMILES),IC50 [nM]
1,"C[C@@H](O)C[C@H]1CC/C=C/[C@H](O)[C@@H]2CC[C@H]2CN2C[C@@]3(CCCc4cc(Cl)ccc43)COc3ccc(cc32)C(=O)NS1(=O)=O (single isomer, unassigned) [Example 539]",2.78
2,"O=C1NS(=O)(=O)C/C=C/C[C@H](O)[C@@H]2CC[C@H]2CN2C[C@@]3(CCCc4cc(Cl)ccc43)COc3ccc1cc32 [Example 771, (1S,3′R,6′R,7′S,9′E)-6-chloro-7′-hydroxy-3,4-dihydro-2H,14′H-spiro[naphthalene-1,21′-[19]oxa[12]thia[1,13]diazatetracyclo [13.7.2.0^3,6.0^18,23]tetracosa[9,15,17,23]tetraen]-14′-one 12′,12′-dioxide]",4.09
3,"O=C1NS(=O)(=O)C[C@@H](C2CC2)C/C=C/[C@H](O)[C@@H]2CC[C@H]2CN2C[C@@]3(CCCc4cc(Cl)ccc43)COc3ccc1cc32 (single isomer, unassigned) [Example 684]",11
4,"CC[C@@H]1C/C=C/[C@H](OC)[C@@H]2CC[C@H]2CN2C[C@@]3(CCCc4cc(Cl)ccc43)COc3ccc(cc32)C(=O)NS1(=O)=O [Example 763, (1S,3′R,6′R,7′S,8′E,11′R)-6-chloro-11′-ethyl-7′-methoxy-3,4-dihydro-2H,14′H-spiro[naphthalene-1,21′-[19]oxa[12]thia[1,13]diazatetracyclo[13.7.2.0^3,6.0^18,23]tetracosa[8,15,17,23]tetraen]-14′-one 12′,12′-dioxide]",2.93
5,"O=C1NS(=O)(=O)C/C=C/CC[C@H](O)[C@@H]2CC[C@H]2CN2C[C@@]3(CCCc4cc(Cl)ccc43)COc3ccc1cc32 [Example 808, (1S,3′R,6′R,7′S,10′E)-6-chloro-7′-hydroxy-3,4-dihydro-2H,15′H-spiro[naphthalene-1,22′-[20]oxa[13]thia[1,14]diazatetracyclo[14.7.2.0^3,6.0^19,24]pentacosa [10,16,18,24]tetraen]-15′-one 13′,13′-dioxide]",1.54
6,"O=C1NS(=O)(=O)C[C@H](CO)CCC[C@H](O)[C@@H]2CC[C@H]2CN2C[C@@]3(CCCc4cc(Cl)ccc43)COc3ccc1cc32 (single isomer, unassigned) [Example 708]",1.12
7,"CC(=O)N(C)[C@H]1CCCCCS(=O)(=O)NC(=O)c2ccc3c(c2)N(C[C@@H]2CC[C@H]21)C[C@@]1(CCCc2cc(Cl)ccc21)CO3 (single isomer, unassigned) [Example 940]",18.6
8,"CC[C@@H]1CC/C=C/C(=O)[C@@H]2CC[C@H]2CN2C[C@@]3(CCCc4cc(Cl)ccc43)COc3ccc(cc32)C(=O)NS1(=O)=O [Example 915, (1S,3′R,6′R,8′E,12′R)-6-chloro-12′-ethyl-3,4-dihydro-2H,7′H,15′H-spiro[naphthalene-1,22′-[20]oxa[13]thia[1,14]diazatetracyclo[14.7.2.0^3,6.0^19,24]pentacosa [8,16,18,24]tetraene]-7′,15′-dione 13′,13′-dioxide]",16.2
9,"O=C1NS(=O)(=O)C/C=C/C[C@@H](O)C[C@@H]2CC[C@H]2CN2C[C@@]3(CCCc4cc(Cl)ccc43)COc3ccc1cc32 (single isomer, unassigned) [Example 912]",7.78
10,"C[C@H](O)C[C@H]1CC/C=C/[C@H](O)[C@@H]2CC[C@H]2CN2C[C@@]3(CCCc4cc(Cl)ccc43)COc3ccc(cc32)C(=O)NS1(=O)=O (single isomer, unassigned) [Example 551]",3.43
11,"CC(C)C(=O)N[C@@H]1CCCCCS(=O)(=O)NC(=O)c2ccc3c(c2)N(C[C@@H]2CC[C@H]21)C[C@@]1(CCCc2cc(Cl)ccc21)CO3 (single isomer, unassigned) [Example 936]",4.74
12,"O=C1NS(=O)(=O)CC=CCC(O)CC2CCC2CN2CC3(CCCc4cc(Cl)ccc43)COc3ccc1cc32 (single isomer, unassigned) [Example 913]",6.1
13,"O=C1NS(=O)(=O)CCC[C@H](O)CC[C@@H]2CC[C@H]2CN2C[C@@]3(CCCc4cc(Cl)ccc43)COc3ccc1cc32 (single isomer, unassigned) [Example 502, (1S,3′R,6′S,9′R)-6-chloro-9′-hydroxy-3,4-dihydro-2H,15′H-spiro[naphthalene-1,22′-[20]oxa[13]thia[1,14]diazatetracyclo[14.7.2.0^3,6.0^19,24]pentacosa [16,18,24]trien]-15′-one 13′,13′-dioxide or (1S,3′R,6′S,9′S)-6-chloro-9′-hydroxy-3,4-dihydro-2H,15′H-spiro[naphthalene-1,22′-[20]oxa[13]thia[1,14]diazatetracyclo[14.7.2.0^3,6.0^19,24]pentacosa [16,18,24]trien]-15′-one 13′,13′-dioxide]",2.31
14,"O=C(C[C@@H]1CC/C=C/[C@H](O)[C@@H]2CC[C@H]2CN2C[C@@]3(CCCc4cc(Cl)ccc43)COc3ccc(cc32)C(=O)NS1(=O)=O)Nc1ccccc1 (single isomer, unassigned) [Example 630]",1.61
15,"O=C1NS(=O)(=O)CCCCC(O)C(O)C2CCC2CN2CC3(CCCc4cc(Cl)ccc43)COc3ccc1cc32 (single isomer, unassigned) [Example 857, (1S,3′R,6′R,7′R,8′R)-6-chloro-7′,8′-dihydroxy-3,4-dihydro-2H,15′H-spiro[naphthalene-1,22′-[20]oxa[13]thia[1,14]diazatetracyclo[14.7.2.0^3,6.0^19,24]pentacosa [16,18,24]trien]-15′-one 13′,13′-dioxide or (1S,3′R,6′R,7′S,8′S)-6-chloro-7′,8′-dihydroxy-3,4-dihydro-2H,15′H-spiro[naphthalene-1,22′-[20]oxa[13]thia[1,14]diazatetracyclo[14.7.2.0^3,6.0^19,24]pentacosa [16,18,24]trien]-15′-one 13′,13′-dioxide]",8.46

# From patent US12091425B2 (AMGEN INC., priority 2016, dated 2024)
